Experimental data as given in patent publication US4064228A (priority 1975, dated 1977).
Like-named read-outs stand apart in the source and are kept apart here.

Experiments:
[1] = tested on: antibody raised to azomorphine conjugate (crude antisera); format: binding; conditions: morphine taken as 100%; for % Cross-reactivity: M50/A50 (amounts for 50% inhibition of labeled hapten binding), Abraham method; for Cross-reactivity of morphine-specific antibody (general statement): under the conditions just described / similarly measured
Procedure: After 2 hours, an equal volume of a neutral, saturated ammonium sulfate solution was added. The resulting precipitates, sedimented by centrifugation at 3000 rpm for 15 minutes at 4° C, were washed once in 50% saturated ammonium sulphate solution. Each precipitate was dissolved in 0.2 ml NCS solubilizer (Amersham-Searle Corp.) and transferred to a scintillation counting vial containing 10 ml. Aquasol dispersant (New England Nuclear Corp.) and counted in a Nuclear Chicago Liquid Scintillation Spectrometer.
Cross-reactivity was computed by the method of Abraham, J. Clin. Endocrin. & Metab.

[2] = tested on: antibody to 3-carboxymethyl opium alkaloid-protein antigen (Leute); conditions: Leute et al., J.A.M.A. 1972; Nature (New Biology) 1972; cited from earlier work
[3] = tested on: opium alkaloid antibody (prior art, raised with morphine); conditions: summary of all prior art known to applicant; cited from earlier work
[4] = tested on: antibody IgG raised to azomorphine conjugate (morphine-specific); format: binding
Procedure: The dried sorbent (300 mg) was washed with 50 ml. saline (0.9%) five times and suspended in a final volume of 15 ml, to which 5 ml of crude antiserum raised to the azomorphine conjugate of Example 5, supra was added. […] The matrix recovered by centrifugation was used as a slurry. 10 ml, […] HCL was added to sorbent. After centrifugation for 1 minute the filtered supernatant was neutralized at once with 1 M dibasic sodium phosphate. The acid base cycle was repeated three times. The recovered antibody solution was dialyzed against 12 liters of 0.1 M phosphate buffer, pH 7.4. […] The specificities of recovered antibody IgG were next determined by immune fluorescence techniques.
Quenching of antibody fluorescence was performed using antibody IgG from non pooled samples. […] Native alkaloid was added in increasing amounts to each tube containing azomorphine and IgG in a 10:1 hapten: antibody ratio (× 10^-10 moles/ml). The alkaloid was added to IgG simultaneously with or in advance of azomorphine. All dilutions were done in triplicate. Incubations including controls were carried out for 10 minutes to 12 hours at 23° C.

[5] = tested on: antibody to 3-carboxymethyl opium alkaloid-protein antigen (Spector); conditions: Spector U.S. Pat. Nos. 3,709,868 and 3,822,245; cited from earlier work
antibodies to serotonin = conditions: reported by Spector et al., Science 179:1340 (1973); cited from earlier work
[6] = even in vast hapten excess, azomorphine:IgG 10:1

Row | SMILES | % Cross-reactivity [1] | Cross-reactivity of morphine-specific antibody (general statement) [1] | Inhibition of fluorescence quenching [4, 6] | other results
1 | COc1ccc2c3c1O[C@H]1[C@@H](O)C=C[C@H]4[C@@H](C2)N(C)CC[C@@]341 [Codeine, codeine] | 11% | ≤ 20% | slight | Cross-reactivity with codeine [2]: high cross-reactivity; Cross-reactivity with codeine [3]: extremely high cross-reactivity; Cross-reactivity with codeine [5]: very high cross-reactivity
2 | COc1ccc2c(c1)[C@@]13CCCC[C@H]1[C@@H](C2)N(C)CC3 [Dextromethorphan, 3-methoxy N-methyl morphinan] | 0.01% | ≤ 0.1% | slight | 
3 | CCOc1ccc2c3c1O[C@H]1[C@@H](O)C=C[C@H]4[C@@H](C2)N(C)CC[C@@]341 [Ethylmorphine] | 16% |  |  | 
4 | CN1CC[C@]23c4c5cc(N=Nc6ccc(C(=O)O)cc6)c(O)c4O[C@H]2[C@@H](O)C=C[C@H]3[C@H]1C5 [Example 1, 2-(4'-carboxyphenylazo) morphine] |  | about 100% |  | Association constants determined by the Sips equation applied to fluorescence data ([4]; antibody IgG from non pooled samples): 1e+07 to 3e+08 L/mol; Quenching maxima (antibody fluorescence) ([4]; antibody IgG from non pooled samples, azomorphine as quencher, 23° C): 56-77%
5 | CCC(=O)C(CC(C)N(C)C)(c1ccccc1)c1ccccc1 (stereo not shown) [Methadone] | 0.01% | ≤ 0.1% |  | 
6 | CC(=O)O[C@H]1C=C[C@H]2[C@H]3Cc4ccc(O)c5c4[C@@]2(CCN3C)[C@H]1O5 [Monoacetylmorphine] | 7% | not more than 10% | slight | 
7 | CN1CC[C@]23c4c5ccc(O)c4O[C@H]2[C@@H](O)C=C[C@H]3[C@H]1C5 [Morphine, morphine] | 100% |  |  | Inhibition of fluorescence quenching ([4]; morphine 40 × 10^-10 moles/ml, 1 × 10^-10 moles/ml antibody, 10 × 10^-10 moles/ml azomorphine): completely inhibited
8 | C=CCN1CC[C@]23c4c5ccc(O)c4O[C@H]2[C@@H](O)C=C[C@H]3[C@H]1C5 [N-allylnormorphine] | 2% |  |  | 
9 | CC(=O)Oc1ccc2c3c1O[C@H]1[C@@H](OC(C)=O)C=C[C@H]4[C@@H](C2)N(C)CC[C@@]341 [heroin, Diacetylmorphine] | 7% | not more than 10% | slight | 
10 | COc1ccc2[nH]cc(CCN)c2c1 [methoxyserotonin, 5-methoxytryptamine] |  |  |  | Cross-reactivity with serotonin antibodies (antibodies to serotonin): substantially complete cross-reactivity
